This is an account of results in patent US20060210625A1, “Sustained release of positively charged pharmacologically active molecules from a matrix containing polymers with polarized oxygen atoms” (Shire Laboratories, Inc., priority 2003, published 2006).

The data set is described as follows: Viscosity of HPMC K4M solution with trospium chloride (Brookfield viscometer). In kind it is physicochemical. Particulars: S18 spindle. On the procedure:
Applicants have discovered that a certain interaction occurs between polarized oxygen atom containing-polymers and positively charged molecules, such as trospium chloride, which is exemplified by the dramatic change in viscosity of, for instance, an HPMC K4M solution when a drug in solution is added to it. An HPMC K4M solution was prepared and diluted to 2% by weight (or “w/w”) with either a trospium chloride solution or water. […] Without being bound to any particular theory, it is believed that this interaction leads to a slowed release of the active agent, and thus for the first time controlled release, once-daily formulations of highly water-soluble compounds can be made with relative ease.
In order to examine the interaction of trospium chloride with HPMC K4M polymer, viscosity of HPMC K4M was measured at a polymer concentration of 2% w/w at room temperature. Also examined was a 2% w/w solution of HPMC K4M containing trospium chloride at a final concentration of 16.7% w/w.
Viscosity was measured using a Brookfield viscometer fitted with an S18 spindle. Viscosity was measured at two spindle speeds. […] The contribution of the trospium chloride solution viscosity on the viscosity of the HPMC K4M solution is negligible.

Molecules are shown by their SMILES.

For the compound `O=C(O[C@H]1C[C@H]2CC[C@@H](C1)[N+]21CCCC1)C(O)(c1ccccc1)c1ccccc1` [trospium chloride], for the setting “2% w/w HPMC K4M, trospium chloride 16.7% w/w, room temperature, two spindle speeds”, the “viscosity of the HPMC K4M solution in the presence of the drug as compared to HPMC K4M solution without the drug” value is recorded as “more than doubled”. Also, the “contribution of the trospium chloride solution viscosity on the viscosity of the HPMC K4M solution” value (Brookfield viscometer) is given as “negligible”.
